Assay results published in patent publication US9346761B2, “Arginine methyltransferase inhibitors and uses thereof” (Epizyme, Inc., priority 2013, dated 2016).

Target: T1, Full-length human PRMT3 (Homo sapiens, UniProt O60678)
T1 construct: GST-tagged PRMT3; made in house; host or cells: E. coli BL21(DE3) Gold (pGEX-KG)
Assay: PRMT3 biochemical assay (3H-SAM Flashplate, peptide substrate)
Method in brief: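 GST-tagged full-length PRMT3 (0.5 nM, E. coli-expressed) preincubated 30 min at room temperature with compound, then 330 nM biotinylated peptide, 100 nM 3H-SAM plus 1.8 uM SAM in Bicine pH 7.6, 2% DMSO.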

T1 sequence (O60678 with tags, fused parts or gaps): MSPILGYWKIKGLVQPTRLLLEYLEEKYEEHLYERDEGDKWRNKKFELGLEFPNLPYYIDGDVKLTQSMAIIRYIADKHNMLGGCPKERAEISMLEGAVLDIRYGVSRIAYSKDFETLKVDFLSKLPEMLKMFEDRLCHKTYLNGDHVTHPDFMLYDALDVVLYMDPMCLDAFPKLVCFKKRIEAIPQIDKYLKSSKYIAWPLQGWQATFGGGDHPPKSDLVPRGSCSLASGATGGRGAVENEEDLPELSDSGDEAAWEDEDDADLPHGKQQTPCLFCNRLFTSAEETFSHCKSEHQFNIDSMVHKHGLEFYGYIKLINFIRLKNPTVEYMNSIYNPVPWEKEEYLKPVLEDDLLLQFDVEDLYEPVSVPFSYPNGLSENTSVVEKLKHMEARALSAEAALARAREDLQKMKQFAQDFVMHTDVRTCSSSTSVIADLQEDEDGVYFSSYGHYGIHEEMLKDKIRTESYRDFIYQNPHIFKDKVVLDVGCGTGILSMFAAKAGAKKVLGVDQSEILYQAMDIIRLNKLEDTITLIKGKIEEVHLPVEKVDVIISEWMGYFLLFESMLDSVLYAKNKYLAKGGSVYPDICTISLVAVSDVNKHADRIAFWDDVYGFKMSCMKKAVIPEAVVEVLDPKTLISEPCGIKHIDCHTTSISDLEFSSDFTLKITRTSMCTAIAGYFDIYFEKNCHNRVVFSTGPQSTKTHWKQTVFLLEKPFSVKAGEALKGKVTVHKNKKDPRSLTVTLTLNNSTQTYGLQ

Row | Structure (SMILES) | IC50 [µM]
1 | CNCCN(C)Cc1cn(C2CC2)nc1-c1ccc(F)cc1 [Compound 13] | > 10
2 | CNCCN(C)Cc1cnn(C2CC2)c1-c1ccc(F)cc1 [Compound 14] | > 10
3 | CNCCN(C)Cc1cn(C(C)C)nc1-c1ccc(F)cc1 [Compound 15] | > 10
4 | CNCCN(C)Cc1cnn(C(C)C)c1-c1ccc(F)cc1 [Compound 16] | > 10
5 | CNCCN(C)Cc1cn[nH]c1-c1ccc(C#N)cc1 [Compound 17] | 1.01 to 3
6 | CNCCN(C)Cc1cn[nH]c1-c1cc(F)cc(F)c1 [Compound 18] | 3.01 to 10
7 | CCCc1ccc(-c2n[nH]cc2CN(C)CCNC)cc1 [Compound 20] | 3.01 to 10
8 | CNCCN(C)Cc1c[nH]nc1-c1cccc([N+](=O)[O-])c1 [Compound 21] | 1.01 to 3
9 | CNCCN(C)Cc1c[nH]nc1-c1cccc(C#N)c1 [Compound 22] | > 10
10 | CNCCN(C)Cc1c[nH]nc1-c1ccccc1OC [Compound 23] | > 10
11 | CNCCN(C)Cc1c[nH]nc1-c1cccc(OC)c1 [Compound 24] | > 10
12 | CNCCN(C)Cc1c[nH]nc1-c1ccc(OC)cc1 [Compound 25] | > 10
13 | CNCCN(C)Cc1c[nH]nc1-c1cccc(O)c1 [Compound 26] | > 10
14 | CNCCN(C)Cc1c[nH]nc1-c1ccc(O)cc1 [Compound 27] | > 10
15 | CNCCN(C)Cc1c[nH]nc1-c1ccc(CO)cc1 [Compound 28] | 0.101 to 1
16 | CNCCN(C)Cc1c[nH]nc1-c1ccc(C)cc1C [Compound 29] | > 10
17 | CNCCN(C)Cc1cn(CCCC(O)CO)nc1-c1ccc(F)cc1 (centres unmarked) [Compound 30] | > 10
18 | CNCCN(C)Cc1cnn(CCCC(O)CO)c1-c1ccc(F)cc1 (centres unmarked) [Compound 31] | > 10
19 | CNCCN(C)Cc1c[nH]nc1-c1ccc(N)cc1 [Compound 33] | 1.01 to 3
20 | CNCCN(C)Cc1c[nH]nc1-c1ccc(Oc2ccccc2)cc1 [Compound 37] | 0.101 to 1
21 | CNCCN(C)Cc1c[nH]nc1-c1ccccc1C(F)(F)F [Compound 38] | > 10
22 | CNCCN(C)Cc1c[nH]nc1-c1ccccc1OC(F)(F)F [Compound 40] | > 10
23 | CCNC(=O)c1cccc(-c2n[nH]cc2CN(C)CCNC)c1 [Compound 43] | > 10
